This is an account of results in patent US20230286973A1, “PROTEIN SECRETION INHIBITORS” (KEZAR LIFE SCIENCES, priority 2020, published 2023).

In series [1] the test system is PD1-ss+10aa/Gaussia Luciferase. As to the kind of experiment: Dox-Induced PD1-ss-Gluc Assay. It counts as cell-based. Conditions: 24 hr Dox induction; 293FRT/TO cells; read-out: 24 hr Dox Inducible PD1ssGluc 293FRT/TO: Mean IC50. A digest of the protocol:
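Flp-In 293 T-REx, stable line; Tet-regulated PD1-ss+10aa fused to Gaussia luciferase; plated day prior; cpd + doxycycline in DMSO/media; 37 °C, 5% CO2.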

In series [2] the test system is TNFα-FL/Gaussia Luciferase. As to the kind of experiment: Dox Induced TNFα-FL-Gluc Assay. The format is cell-based. Conditions: for IC50: 24 hr Dox induction, 293FRT/TO cells, read-out: 24 hr Dox Inducible TNFaFLGluc 293FRT/TO: Mean IC50; for 24 hr Dox Inducible TNFaFLGluc 293FRT/TO: TNF/PD1: ratio of TNFaFLGluc IC50 to PD1ssGluc IC50. A digest of the protocol: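 Compound was added with doxycycline to cells plated a day earlier, incubating at 37° C under 5% CO2. The reporter line is 293 T-REx expressing a TNFα (1-233)–Gaussia luciferase fusion under tetracycline-regulated control.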

Series [3] concerns HER3-ss+4aa/Gaussia Luciferase. As to the kind of experiment: Dox-Induced Her3-ss-Gluc Assay. It counts as cell-based. Particulars: 24 hr Dox induction; 293FRT/TO cells; read-out: 24 hr Dox Inducible Her3(ss + 4)Gluc 293FRT/TO: Mean IC50. A digest of the protocol: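 Compounds were diluted in DMSO/media containing doxycycline. They were added to Flp-In 293 T-REx cells plated the previous day, then incubated at 37 °C under 5% CO2. These cells stably express, under T-REx control, Gaussia luciferase fused to the HER3 signal sequence plus 4 amino acids.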

Series [4] has as its system IL-2-FL/Gaussia Luciferase. As to the kind of experiment: Dox Induced IL2-FL-Gluc Assay. It counts as cell-based. Conditions: for IC50: 24 hr Dox induction, 293FRT/TO cells, read-out: 24 hr Dox Inducible IL2FLGluc 293FRT/TO: Mean IC50; for 24 hr Dox Inducible IL2FLGluc 293FRT/TO: IL2/PD1: ratio of IL2FLGluc IC50 to PD1ssGluc IC50. In outline:
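Compounds in DMSO/medium with doxycycline were applied to a 293 T-REx stable line expressing an IL-2 (aa 1-153)–Gaussia luciferase fusion under tetracycline-regulated control, cells seeded one day earlier; incubation at 37 °C, 5% CO2. Structures drawn without stereochemistry were tested as stereoisomer mixtures.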

Series [5] deals with multiple myeloma cell line NCI-H929. As to the kind of experiment: H929 Cell Viability Assay. It counts as cell-based, human. Particulars: Homo sapiens, NCI-H929, 48 h, NCI-H929 cells, Celltiter-Glo. A digest of the protocol: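 Luminescent CellTiter-Glo read-out of viability after a 48 h exposure (37° C, 5% CO2) of NCI-H929 myeloma cells to compound dilutions in RPMI 1640 plus 10% FBS. Data for structures drawn without stereochemistry refer to stereoisomer mixtures.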

The subject of series [6] is multiple myeloma cell line U266B1. As to the kind of experiment: U266 Cell Viability Assay. The format is cell-based, human. Conditions: Homo sapiens, U-266, 48 h, U266B1 cells, Celltiter-Glo. A digest of the protocol: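 CellTiter-Glo luminescence was read after a 48 h compound exposure (37 °C, 5% CO2) of human U266B1 myeloma cells grown in 10% FBS-supplemented RPMI 1640. Data for structures shown without defined stereochemistry refer to stereoisomer mixtures.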

Series [7] can be described thus: Liver Microsome Stability Assay (rat). Conditions: rat liver microsomes, with NADPH, 1.0 uM compound.
Method: (§1) Stability of a compound was assessed in the presence of liver microsomes from various sources—mouse, rat, monkey and human liver microsomes. 1.0 uM compound, 0.4% DMSO in 0.1 M Potassium Phosphate with 1.0 mg/mL liver microsomes, were incubated at 37° C. with or without 1 mM NADPH. The samples were quenched at 0, and 30 minutes.
Series [8] can be described thus: Liver Microsome Stability Assay (mouse). Particulars: mouse liver microsomes, with NADPH, 1.0 uM compound.
Method: as §1
The nature of series [9]: Liver Microsome Stability Assay (human). Particulars: human liver microsomes, with NADPH, 1.0 uM compound.
Method: as §1
A short description of series [10]: Liver Microsome Stability Assay (monkey). Particulars: monkey liver microsomes, with NADPH, 1.0 uM compound.
Method: as §1

On to `CCn1cnc(/C=C/c2csc(NC(=O)c3cccn3Cc3ccncc3)n2)c1` [Compound B69, (E)-N-(4-(2-(1-ethyl-1H-imidazol-4-yl)vinyl)thiazol-2-yl)-1-(pyridin-4-ylmethyl)-1H-pyrrole-2-carboxamide], for which the IC50 in series [1] is 0.119 µM; in series [2], more than 25 µM; in [3], more than 25 µM; in series [4], more than 25 µM. Besides, the “24 hr Dox Inducible TNFaFLGluc 293FRT/TO: TNF/PD1” value in series [2] is on record as more than 209. In [4], the “24 hr Dox Inducible IL2FLGluc 293FRT/TO: IL2/PD1” value is more than 210. In addition, the half-maximal effective concentration (EC50) in series [5] and in series [6] was more than 25 µM in each case. The “Liver Microsome Stability (Multiple Species): Rat - % Remaining after 30 min w/NADPH” value in series [7] turned out to be 0.28%. In addition, the “Liver Microsome Stability (Multiple Species): Mouse - % Remaining after 30 min w/NADPH” value in [8] is on record as 0.32%. In series [9], the “Liver Microsome Stability (Multiple Species): Human - % Remaining after 30 min w/NADPH” value was 0.01%. In addition, the “Liver Microsome Stability (Multiple Species): Monkey - % Remaining after 30 min w/NADPH” value in [10] came out at 0.04%.
Take `Cc1cccc2nc(/C=C/c3csc(NC(=O)c4cccn4Cc4ccnc(F)c4)n3)cn12` [Compound B70, (E)-1-((2-fluoropyridin-4-yl)methyl)-N-(4-(2-(5-methylimidazo[1,2-a]pyridin-2-yl)vinyl)thiazol-2-yl)-1H-pyrrole-2-carboxamide]: the IC50 is 0.499 µM in [1], more than 25 µM in series [2], more than 25 µM in [3] and more than 25 µM in series [4]. Further, the “24 hr Dox Inducible TNFaFLGluc 293FRT/TO: TNF/PD1” value in series [2] is listed as more than 50.1. For the same molecule, the “24 hr Dox Inducible IL2FLGluc 293FRT/TO: IL2/PD1” value in series [4] is more than 50. Also, the EC50 in [5] and in series [6] was more than 25 µM in each case. Moreover, the “Liver Microsome Stability (Multiple Species): Rat - % Remaining after 30 min w/NADPH” value in [7] is 1.37%. In addition, the “Liver Microsome Stability (Multiple Species): Mouse - % Remaining after 30 min w/NADPH” value in series [8] was determined as 2.19%. In addition, the “Liver Microsome Stability (Multiple Species): Human - % Remaining after 30 min w/NADPH” value in [9] came out at 0.35%. Also, the “Liver Microsome Stability (Multiple Species): Monkey - % Remaining after 30 min w/NADPH” value in series [10] was 0.19%.
For `O=C(Nc1nc(/C=C/c2cn3c(n2)CCC3)cs1)c1cccn1Cc1ccncc1` [Compound B71, (E)-N-(4-(2-(6,7-dihydro-5H-pyrrolo[1,2-a]imidazol-2-yl)vinyl)thiazol-2-yl)-1-(pyridin-4-ylmethyl)-1H-pyrrole-2-carboxamide], the IC50 is 0.298 µM in series [1], more than 25 µM in [2], more than 25 µM in series [3] and more than 25 µM in series [4]. The “24 hr Dox Inducible TNFaFLGluc 293FRT/TO: TNF/PD1” value in [2] is more than 83.9. Besides, the “24 hr Dox Inducible IL2FLGluc 293FRT/TO: IL2/PD1” value in series [4] is on record as more than 84. Further, the EC50 in [5] and in series [6] was more than 25 µM each time. Moreover, in series [7], the “Liver Microsome Stability (Multiple Species): Rat - % Remaining after 30 min w/NADPH” value was determined as 0.1%. For the same molecule, the “Liver Microsome Stability (Multiple Species): Mouse - % Remaining after 30 min w/NADPH” value in series [8] was 0.16%. Moreover, the “Liver Microsome Stability (Multiple Species): Human - % Remaining after 30 min w/NADPH” value in [9] stood at 0.03%. Moreover, in series [10], the “Liver Microsome Stability (Multiple Species): Monkey - % Remaining after 30 min w/NADPH” value is 0.03%.
Regarding `CC(C)c1nc(/C=C/c2csc(NC(=O)c3cccn3Cc3ccncc3)n2)cn1C` [Compound B72, (E)-N-(4-(2-(2-isopropyl-1-methyl-1H-imidazol-4-yl)vinyl)thiazol-2-yl)-1-(pyridin-4-ylmethyl)-1H-pyrrole-2-carboxamide], the IC50 was 7.15 µM in [1], more than 25 µM in series [2], 10.6 µM in series [3] and more than 25 µM in [4]. In [2], the “24 hr Dox Inducible TNFaFLGluc 293FRT/TO: TNF/PD1” value is more than 3.50. Further, the “24 hr Dox Inducible IL2FLGluc 293FRT/TO: IL2/PD1” value in series [4] is on record as more than 3.5. The EC50 in [5] and in [6] was more than 25 µM in each case. Also, the “Liver Microsome Stability (Multiple Species): Rat - % Remaining after 30 min w/NADPH” value in series [7] is recorded as 0.16%. For the same molecule, the “Liver Microsome Stability (Multiple Species): Mouse - % Remaining after 30 min w/NADPH” value in series [8] came to 0.03%. The “Liver Microsome Stability (Multiple Species): Human - % Remaining after 30 min w/NADPH” value in series [9] stood at 0.95%. Also, the “Liver Microsome Stability (Multiple Species): Monkey - % Remaining after 30 min w/NADPH” value in series [10] came to 0.06%.
For the molecule `CC(C)c1cccc2nc(/C=C/c3csc(NC(=O)c4cccn4Cc4ccnc(F)c4)n3)cn12` [Compound B73, (E)-1-((2-fluoropyridin-4-yl)methyl)-N-(4-(2-(5-isopropylimidazo[1,2-a]pyridin-2-yl)vinyl)thiazol-2-yl)-1H-pyrrole-2-carboxamide], the IC50 is 0.486 µM in [1], more than 25 µM in series [2], more than 25 µM in series [3] and more than 25 µM in series [4]. For the same molecule, in series [2], the “24 hr Dox Inducible TNFaFLGluc 293FRT/TO: TNF/PD1” value is more than 51.4. Besides, in [4], the “24 hr Dox Inducible IL2FLGluc 293FRT/TO: IL2/PD1” value is more than 51. Also, the EC50 in series [5] and in series [6] was more than 25 µM in each case. Also, in [7], the “Liver Microsome Stability (Multiple Species): Rat - % Remaining after 30 min w/NADPH” value is reported as 3.87%. Further, the “Liver Microsome Stability (Multiple Species): Mouse - % Remaining after 30 min w/NADPH” value in series [8] is recorded as 1.62%. Besides, the “Liver Microsome Stability (Multiple Species): Human - % Remaining after 30 min w/NADPH” value in series [9] is on record as 0.81%. The “Liver Microsome Stability (Multiple Species): Monkey - % Remaining after 30 min w/NADPH” value in series [10] was 0.48%.
Consider `CC(C)n1ccc(/C=C/c2csc(NC(=O)c3cccn3Cc3ccnc(F)c3)n2)n1` [Compound B74, (E)-1-((2-fluoropyridin-4-yl)methyl)-N-(4-(2-(1-isopropyl-1H-pyrazol-3-yl)vinyl)thiazol-2-yl)-1H-pyrrole-2-carboxamide], for which the IC50 in [1] was found to be 0.418 µM; in series [2], 9.97 µM; in series [3], 4.08 µM; in series [4], 5.36 µM. Also, in series [2], the “24 hr Dox Inducible TNFaFLGluc 293FRT/TO: TNF/PD1” value is 23.9. Also, the “24 hr Dox Inducible IL2FLGluc 293FRT/TO: IL2/PD1” value in series [4] was 13. Besides, the EC50 in series [5] was found to be 5.29 µM; in [6], 5.49 µM. Also, the “Liver Microsome Stability (Multiple Species): Rat - % Remaining after 30 min w/NADPH” value in series [7] is 0.43%. The “Liver Microsome Stability (Multiple Species): Mouse - % Remaining after 30 min w/NADPH” value in series [8] came to 3.41%. For the same molecule, the “Liver Microsome Stability (Multiple Species): Human - % Remaining after 30 min w/NADPH” value in [9] is 0.44%. For the same molecule, the “Liver Microsome Stability (Multiple Species): Monkey - % Remaining after 30 min w/NADPH” value in series [10] was found to be 0.13%.
As for `CC(C)n1ccc(/C=C/c2csc(NC(=O)c3cccn3Cc3ccncc3)n2)n1` [Compound B75, (E)-N-(4-(2-(1-isopropyl-1H-pyrazol-3-yl)vinyl)thiazol-2-yl)-1-(pyridin-4-ylmethyl)-1H-pyrrole-2-carboxamide], the IC50 in series [1] was found to be 0.446 µM; in [2], 10.3 µM; in [3], 5.67 µM; in series [4], 17.1 µM. In series [2], the “24 hr Dox Inducible TNFaFLGluc 293FRT/TO: TNF/PD1” value is recorded as 23. In addition, in series [4], the “24 hr Dox Inducible IL2FLGluc 293FRT/TO: IL2/PD1” value stood at 38. In addition, the EC50 in series [5] stood at 7.16 µM; in series [6], 6.75 µM. In addition, the “Liver Microsome Stability (Multiple Species): Rat - % Remaining after 30 min w/NADPH” value in [7] is recorded as 0.27%. In addition, in series [8], the “Liver Microsome Stability (Multiple Species): Mouse - % Remaining after 30 min w/NADPH” value turned out to be 0.94%. Further, the “Liver Microsome Stability (Multiple Species): Human - % Remaining after 30 min w/NADPH” value in series [9] is 2.26%. Also, in [10], the “Liver Microsome Stability (Multiple Species): Monkey - % Remaining after 30 min w/NADPH” value worked out at 0.23%.
